Results as given in publication PMC9888311, “Neonatal NET-Inhibitory Factor improves survival in the cecal ligation and puncture model of polymicrobial sepsis by inhibiting neutrophil extracellular traps” (Frontiers in Immunology, 2023).
Where no end group is shown, it is not given here.

Legend:
Type in all cases: in vivo, mouse (outbred Swiss Webster)
[1] = test system: aerobic bacteria in peritoneal fluid; experiment: Peritoneal fluid aerobic bacterial colony forming units; conditions: 24 hours after CLP; nNIF 1 mg/kg or meropenem 25 mg/kg at 4 and 10 hours; serial dilution, LB-agar, 37°C 24 hours; N=5-8
Description: (§1) Peritoneal fluid cytokines were analyzed using a mouse Cytokine/Chemokine Panel I Multiplex Array (Millipore Sigma catalog# HCYTMAG60-PMX41) according to manufacturer’s instructions on a Luminex 200 instrument. Bacterial counts in whole blood and peritoneal lavage were determined 24 hours after CLP. Briefly, peritoneal fluid and blood samples were collected, serially diluted, plated on LB-agar dishes, and incubated at 37°C for 24 hours. The number of bacterial colonies was counted and expressed as CFU/mL.

[2] = test system: neutrophil extracellular traps (NETs), plasma; experiment: Plasma NET formation (MPO-DNA complex ELISA); conditions: 24 hours after CLP; for plasma MPO-DNA complexes compared to other CLP treatment groups: nNIF 1 mg/kg IV or meropenem 25 mg/kg IP at 4 and 10 hours after CLP, N=3-5 per group, two experiments
Description: An in-house ELISA was used to quantify MPO-DNA complexes in plasma and peritoneal fluid from sham and CLP mice 24 hours after the surgical procedure ([24], [27]). Briefly, after overnight coating with anti-MPO capture antibody in calcium carbonate coating buffer (2 µg/ml; 0400-0002, Bio-Rad) at 4°C, a 96-well plate was blocked with 2.5% bovine serum albumin in PBS for 2 hours at room temperature. The plate was subsequently washed, before incubating for 90 minutes at room temperature with 10% peritoneal fluid in blocking buffer. The plate was washed five times, and then incubated for 90 minutes at room temperature with anti-DNA detection antibody (1:20; Cell Death detection ELISA, 11544675001, Sigma). After five washes, the plate was developed with TMB substrate solution (Sigma).

[3] = test system: CLP model of polymicrobial sepsis; experiment: Survival over 6 days after cecal ligation and puncture (CLP)
Description: Mice were anesthetized with 3% isoflurane in an induction chamber, and anesthesia was maintained by use of inhalation via nose cone. Sepsis was induced by cecal ligation and puncture (CLP) as previously described ([30], [31]). […] The animals received subcutaneous sterile isotonic saline (0.5 mL) for fluid resuscitation immediately after surgery. Sham-operated mice were subjected to identical procedures, except that ligation and puncture of the cecum was omitted. Survival of mice subjected to CLP or sham injury was determined daily for 6 days. Twenty-four and 48 hours after CLP, all animals were scored for clinical illness severity as previously described ([32]) by an examiner blinded to treatment arm. In this assessment, higher scores reflect increased illness severity with non-surviving mice receiving a score of 10. These mice were included in the statistical analysis. In additional experiments, mature Swiss-webster mice were treated with sham surgery or CLP procedure. […]
For our survival studies, animals were randomly assigned to one of five groups: (a) sham-operated group (Sham); (b) DMSO vehicle treatment group (CLP + DMSO (0.003%/5% Dextrose/H2O, IV); (c) nNIF treatment group ([…], 0.003%/5% Dextrose/H2O, IV); (d) scrambled peptide control treatment group (CLP + nNIF-SCR, 1 mg/kg, 0.003%/5% Dextrose/H2O, IV); and (e) antibiotic treatment group ([…]). Groups a-d received their respective treatment at 4 and 10 hours after CLP. Group e received two doses of meropenem at 4 and 10 hours after CLP and then daily injections for 6 days. In another set of survival studies, mice were treated with nNIF or nNIF-SCR (1 mg/kg, IV) 4 and 10 hours after CLP in combination therapy with a suboptimal dose of meropenem (8 mg/kg, IP) also given 4 and 10 hours after CLP and then once daily. […] Both aliquots of blood and peritoneal fluid were used for the following analyses: leukocyte cell count and differential, bacterial CFU studies, NET quantitation using MPO-DNA complex ELISA, live cell imaging, and multiplex cytokine profiling with specific ELISA confirmation.

neutrophil CD11b = experiment: Peritoneal fluid neutrophil CD11b expression (flow cytometry); conditions: 24 hours after CLP; nNIF 1 mg/kg or meropenem 25 mg/kg at 4 and 10 hours; compared to scrambled peptide control-treated CLP mice
Description: Twenty-four hours after CLP or sham surgery, total white blood cell and differential neutrophil counts were determined both in whole blood samples collected from orbital vein using heparinized capillaries tubes and peritoneal fluid by washing with 3 mL of PBS, respectively. Then, samples were incubated with CD45 APC-Cy7 (Biolegend), CD11b PE-Cy7 (EBioscience), Ly6G BV510 (Biolegend), and CD16/CD32 (Fc-block, EBioscience) for 30 minutes at 37 °C. Thirty minutes later, cells were washed, fixed, and ran on a Beckman Coulter Cytoflex located in the University of Utah Flow Cytometry Core.

[4] = test system: aerobic bacteria in whole blood; experiment: Whole blood aerobic bacterial colony forming units; conditions: for peripheral blood bacterial CFUs at 24 hours: 24 hours after CLP, nNIF 1 mg/kg or meropenem 25 mg/kg at 4 and 10 hours, serial dilution, LB-agar, 37°C 24 hours, N=5-8
Description: as §1, with “Bacterial counts in whole blood and peritoneal lavage were determined 24 hours after CLP.” left out

Compound | peritoneal fluid bacterial CFUs at 24 hours [1] | plasma MPO-DNA complexes compared to other CLP treatment groups [2] | plasma MPO-DNA complexes compared to the sham surgery group ([2]; nNIF-SCR 1 mg/kg IV or meropenem 25 mg/kg IP at 4 and 10 hours after CLP) | 6-day survival ([3]; sub-optimal meropenem 8 mg/kg IP at 4 and 10 hours after CLP then once daily) | neutrophil CD11b expression in peritoneal fluid (neutrophil CD11b) | peripheral blood bacterial CFUs at 24 hours [4] | 6-day survival ([3]; nNIF 0.1 mg/kg IV, 2 doses at 4 and 10 hours after CLP, N=10, vehicle (DMSO) control 0%) | 6-day survival ([3]; nNIF 0.5 mg/kg IV, 2 doses at 4 and 10 hours after CLP, N=10, vehicle (DMSO) control 0%) | whole blood bacterial CFUs at 96 hours ([4]; 96 hours after CLP, nNIF 1 mg/kg, elevated at 24 hours, meropenem comparator 8 mg/kg, N=3-4)
C[C@@H](O)[C@H]1C(=O)N2C(C(=O)O)=C(S[C@@H]3CN[C@H](C(=O)N(C)C)C3)[C@H](C)[C@H]12 [meropenem, reference compound] | statistically significant decrease | equivalent between the vehicle and meropenem arms | significantly increased MPO-DNA complexes | 40% | no decrease | statistically significant decrease |  |  | 
KFNKPFVFLMIEQNTKSPLFMGKVVNPTQ-OH [nNIF, neonatal NET-Inhibitory Factor] | higher CFUs | significant reduction in MPO-DNA complexes |  |  | significantly decreased neutrophil CD11b expression | higher CFUs | 30% | 70% | returned to meropenem alone treatment levels
